Experimental data reported in ChEMBL document CHEMBL3217573, “Diacrylamides as selective G-quadruplex ligands in in vitro and in vivo assays” (Medchemcomm, 2011).
The source made the active and inactive calls. The calls are words filed in the database; no cut-off is given here.

Experiments:
[1] = Displacement of thiazole orange from ds26 DNA (unknown origin) preincubated for 10 mins measured after 3 mins by fluorescence spectra analysis
[2] = Displacement of thiazole orange from 22AG DNA (unknown origin) preincubated for 10 mins measured after 3 mins by fluorescence spectra analysis
unidentified = test: Selectivity ratio of ligand concentration required to displace thiazole orange from 22AG DNA (unknown origin) to same extent as percentage displacement from ds26 DNA (unknown origin) at 2.5 uM of compound
MCF7 [3] = test: Induction of apoptosis in human MCF7 cells after 48 hrs by MTT assay; assay type: functional, cell-based
Caco-2 = test: Induction of apoptosis in human Caco2 cells after 48 hrs by MTT assay; assay type: functional, cell-based
MCF7 [4] = test: Cytotoxicity against human MCF7 cells assessed as reduction of cell viability after 10 days by MTT assay relative to control; assay type: functional
MCF7 [5] = test: Cytotoxicity against human MCF7 cells assessed as reduction of cell viability after 10 days by MTT assay; assay type: functional, cell-based; details: MCF7, 240 h
MCF7 [6] = test: Cytotoxicity against human MCF7 cells assessed as reduction of cell viability at 2.5 uM after 24 hrs by MTT assay; assay type: functional

Compound | Kd [1] | Kd [2] | Selectivity ratio (unidentified) | Activity (MCF7 [3]) | Activity (Caco-2) | Activity (MCF7 [4]) | IC50 (MCF7 [5]) | Activity (MCF7 [6])
O=C(/C=C/c1c2ccccc2c(Br)c2ccccc12)N1CCOCC1 | 1760 nM | 170 nM | 5 |  |  |  |  | 
CC(=O)CC(C)(C)NC(=O)/C=C/c1c2ccccc2c(/C=C/C(=O)NC(C)(C)CC(C)=O)c2ccccc12 | 360 nM | 70 nM | 5.6 |  |  |  |  | 
O=C(/C=C/c1c2ccccc2c(/C=C/C(=O)NC(CO)(CO)CO)c2ccccc12)NC(CO)(CO)CO | 22600 nM |  | 0 |  |  |  |  | 
NC(=O)/C=C/c1c2ccccc2c(/C=C/C(N)=O)c2ccccc12 | 2090 nM | 30 nM | 33.3 | inactive | inactive | >80% | 2500 nM | 
O=C(/C=C/c1c2ccccc2c(/C=C/C(=O)N2CCOCC2)c2ccccc12)N1CCOCC1 | 290 nM | 20200 nM | 0 |  |  |  |  | 40%
COc1ccc2cc3[n+](cc2c1OC)CCc1cc2c(cc1-3)OCO2 [BERBERINE] | 1770 nM | 216000 nM | 0.1 |  |  |  |  | 
